Laboratory results from publication PMC6581027, “In vitro Radiopharmaceutical Evidence for MCHR1 Binding Sites in Murine Brown Adipocytes” (Frontiers in Endocrinology, 2019).
Like-named read-outs stand apart in the source and are kept apart here.

Assays:
murine brown adipocytes [1] = assay: Specific [11C]SNAP-7941 binding to brown adipocytes (competition); format: cell-based; conditions: 2 μM unlabeled compound; for [11C]SNAP-7941 binding per well referring to baseline: 30 min pre-treatment, baseline (vehicle) = 100% binding/well, mean ± SD
Method: (§1) Cells were maintained under standard conditions in a humidified incubator (37°C, 5% CO2). CHO-K1 cells expressing the human adrenergic beta-3 receptor (CHO-K1-ADRB3) were purchased from PerkinElmer (ValiScreen® ES-035-C). CHO-K1-ADRB3 were grown using Ham's F12 (Nut Mix) supplemented with 10% FCS, 2 mM L-glutamine, penicillin (100 Units/mL), streptomycin (100 μg/mL), and 0.4 mg/mL geneticin. CHO-K1 cells were a generous gift from Prof. Karl Norbert Klotz (University Würzburg, Germany) and cultured likewise without selection antibiotics. Immortalized murine brown pre-adipocytes were provided by the Department of Medicine III (Medical University of Vienna, Austria) and cultured in high glucose Dulbecco's Modified Eagle's Medium (DMEM) supplemented with 10% FBS, 1 mM pyruvate, penicillin (100 Units/mL) and streptomycin (100 μg/mL). When cells were confluent, differentiation to brown adipocytes was induced for 48 h using 1.72 μM insulin (human recombinant), 1 nM thyroid hormone (T3), 0.5 mM 3-isobutyl-1-methylxanthine (IBMX), 125 nM indomethacin, and 1 μM dexamethasone. After induction, the medium was changed to post-differentiation medium (high glucose DMEM) supplemented with 10% FBS, 1 mM pyruvate, penicillin (100 Units/mL), streptomycin (100 μg/mL), 1.72 μM insulin, and 1 nM T3. The post-differentiation medium was replenished every second day. Brown adipocytes were used for experimental investigations 4–6 days after induction. Oil Red O staining was performed according to the manufacturer's instructions. Counterstaining was performed using haematoxylin.
Brown pre-adipocytes were seeded, grown to confluence and differentiated in six-well plates as described above. Thirty minutes prior to the experiment, maintenance medium (cf. 2.1) was discarded and replaced with respective serum- and additive-free medium to avoid plasma protein binding of the PET-tracer. Cell starving, as performed for [^18F]FDG uptake measurements, was not indicated for [^11C]SNAP-7941 binding experiments. […] Baseline was determined using DMSO or ethanol, respectively. Sample processing, data analysis and statistical testing were performed as described in [^18F]FDG Uptake Experiments: Effects of MCHR1 Ligands on Brown Adipocyte Activation.

murine brown adipocytes [2] = assay: [18F]FDG uptake in brown adipocytes (brown adipocyte activation); format: cell-based; conditions: 30 min pre-treatment, baseline (vehicle) = 100% uptake/well, mean ± SD
Method: as §1
Brown pre-adipocytes were seeded, grown to confluence and differentiated in 6-well plates as described in section General. Cell starving was performed for 1 h using unsupplemented, glucose-free DMEM. […] [^18F]FDG uptake was performed for 50 min at 37°C (humidified atmosphere, 5% CO2). Supernatant was taken off, cells were washed with ice-cold PBS and finally trypsinized. Radioactive cell fractions were gamma counted (2480 Wizard^2, PerkinElmer) and normalized to percentage uptake per well. [^18F]FDG uptake under baseline conditions refers to 100% uptake. Three independent experiments were performed in triplicates. Statistical analysis was performed using an unpaired, two-tailed t-test.

[3] = molecular target: T1, human adrenergic beta-3 receptor (ADRB3) (Homo sapiens, UniProt P13945); assay: Competitive binding assay, CHO-K1-ADRB3 cell membranes, [3H]CGP-12177 radioligand; conditions: for Ki: CHO-K1-ADRB3 membranes, 5 nM [3H]CGP-12177, 90 min 27°C, read-out: Ki ADRB3 experimental; for ADRB3/ MCHR1 (ratio of Ki values): selectivity toward MCHR1, ADRB3 Ki measured, MCHR1 Ki from ref [28]
T1 construct: host or cells: CHO-K1
Method: CHO-K1-ADRB3 cell membranes were prepared from 175 cm^2 cell culture flasks, when 80% confluence was reached. All procedures were performed at 4°C. Cells were scraped off using ice-cold lysis buffer (10 mM Tris-HCl pH 7.4, 1 mM EDTA) and protease inhibitor cocktail was added according to the manufacturer's instructions (Sigma-Aldrich, St. Louis, USA). The cell suspension was homogenized using cannulas (29 G) and centrifuged for 10 min at 1,000 × g. The obtained supernatant was centrifuged for 30 min at 100,000 × g. Subsequently, the pellet was suspended using 50 mM Tris-HCl pH 7.4 and aliquoted. Aliquots were shock-frozen in liquid nitrogen and stored at −80°C until usage. Protein concentration of the cell membrane suspension was determined using BCA Protein Assay Kit (Thermo Scientific, Waltham, USA).
All stated concentrations refer to the final assay volume of 500 μL buffer (25 mM HEPES pH 7.4, 1 mM EDTA, 0.5% BSA). Competitive binding assays were performed using 13.6 ng/μL ADRB3 expressing CHO-K1 cell membrane suspension (cf. 2.3) and 5 nM [^3H]CGP-12177 as the respective radioligand. […] Nonspecific binding was determined using 10 μM carazolol. Total binding was determined in the presence of 1% respective solvent. Incubation was performed for 90 min at 27°C. Filtration through GF/B filters (Whatman®, presoaked in 0.05% PEI) was performed using a cell harvester (Brandel®, Gaithersburg, MD, USA) and was followed by two washing steps using ice-cold wash buffer (10 mM HEPES, 500 mM NaCl, pH 7.4). Filter pieces containing receptor-bound radioactivity were shaken for 30 min in scintillation cocktail (Ultima Gold™, PerkinElmer, Waltham, USA) before liquid scintillation counting (Hidex 300 SL, Turku, Finland). IC50 fitted binding curves were generated using the GraphPad Software 5.0 (La Jolla, CA, USA) using nonlinear regression.

CHO-K1-ADRB3 cells = molecular target: T2, CHO-K1-ADRB3 cells (Homo sapiens, UniProt P13945); assay: Real-time kinetic displacement of [125I]Iodocyanopindolol binding (LigandTracer); format: cell-based; conditions: 20 μM non-radioactive compound applied after 60 min association phase
T2 construct: host or cells: CHO-K1
Method: 2.5 × 10^5 cells (CHO-K1, CHO-K1-ADRB3) per cell culture dish were seeded 2 days prior to the experiment and incubated in an inclined position to allow an adherent cell pole at one side of the cell dish. Cell dish preparation was performed as previously described ([32], [33]). Real-time kinetic radioligand binding measurements were performed using a dedicated device for low energy gamma radiation (LigandTracer® Gray Technology, Ridgeview, Sweden). The assay protocol compromised consecutive radioactivity measurements of the target region (cell pole) and of the opposite pole of the petri dish, where no cells were seeded (background signal). Radioactivity was counted in each region for 3 s with a delay of 2 s over the time course of the experiment. Raw counts per second (cps) of the target region were corrected for background signal and for radioactive decay. Displacement of [^125I]Iodocyanopindolol binding was conducted after 1 h association phase of radioligand binding by consecutively applying rising concentrations of SNAP-7941 and FE@SNAP. The same volume of ethanol was added as vehicle control. Experiments were performed on at least three different days.

MCHR1 = molecular target: MCHR1; set-up: method as in PMID 28808288; conditions: previously described; ref [28]; cited from earlier work
ADRB3 [4] = molecular target: ADRB3; set-up: method as in PMID 20590599; conditions: assumed for Ki calculation; ref [31]; cited from earlier work
ADRB3 [5] = molecular target: ADRB3; set-up: method as in PMID 14730417, PMID 8719421, PMID 7903415, PMID 2570461; conditions: literature values for standard compounds; ref [43], [45]–[47]; read-out: Ki ADRB3 reference; cited from earlier work

T1 sequence (P13945 whole entry): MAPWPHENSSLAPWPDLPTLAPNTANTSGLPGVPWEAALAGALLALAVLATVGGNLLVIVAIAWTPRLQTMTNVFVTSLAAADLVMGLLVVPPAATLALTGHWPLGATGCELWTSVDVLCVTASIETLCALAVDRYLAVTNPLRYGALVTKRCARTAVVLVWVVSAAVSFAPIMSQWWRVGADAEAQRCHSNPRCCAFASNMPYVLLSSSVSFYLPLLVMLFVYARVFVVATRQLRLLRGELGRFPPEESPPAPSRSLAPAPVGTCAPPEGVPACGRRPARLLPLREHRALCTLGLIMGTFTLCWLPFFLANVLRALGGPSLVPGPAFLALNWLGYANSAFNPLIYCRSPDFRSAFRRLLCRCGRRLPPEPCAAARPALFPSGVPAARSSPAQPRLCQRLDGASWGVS
T2 sequence (P13945 whole entry): as above

| Ki ([3]; n = 3 in triplicates) [nM] | ADRB3/ MCHR1 (ratio of Ki values) [3] | Effect on [125I]Iodocyanopindolol binding to CHO-K1-ADRB3 cells (CHO-K1-ADRB3 cells) | SMILES | [11C]SNAP-7941 binding per well referring to baseline (murine brown adipocytes [1]) [%] | [18F]FDG uptake referring to baseline (murine brown adipocytes [2]; 2 μM compound) | Ki (MCHR1) [nM] | [18F]FDG uptake referring to baseline (murine brown adipocytes [2]; 20 μM compound) [%] | also measured |
| --- | --- | --- | --- | --- | --- | --- | --- | --- |
|  |  |  | CC(C)NC[C@H](O)COc1cccc2ccccc12.Cl [(S)-propranolol, (S)-propranolol hydrochloride] | 95.8 ± 8.6 | did not alter |  |  | [11C]SNAP-7941 binding per well referring to baseline (murine brown adipocytes [1]; listed as propranolol): did not alter |
|  |  |  | C[C@H](Cc1ccc2c(c1)OC(C(=O)[O-])(C(=O)[O-])O2)NC[C@H](O)c1cccc(Cl)c1.[Na+].[Na+] [CL 316,243, reference compound] | 91.1 ± 3.6 | 137.7 ± 12.2% |  |  |  |
| 65100 ± 2900 | ~6,523 | did not affect binding | COCC1=C(C(=O)OCCF)C(c2ccc(F)c(F)c2)N(C(=O)NCCCN2CCC(c3cccc(NC(C)=O)c3)CC2)C(=O)N1 (centres unmarked) [FE@SNAP] |  |  | 9.98 ± 1.12 | 73.03 ± 13.6 |  |
| 14500 ± 300 | ~3,708 | did not affect binding | COCC1=C(C(=O)OC)[C@H](c2ccc(F)c(F)c2)N(C(=O)NCCCN2CCC(c3cccc(NC(C)=O)c3)CC2)C(=O)N1 [SNAP-7941] | 77.1 ± 5.0 |  | 3.91 ± 0.74 | 63.24 ± 2.6 | Reduction of [11C]SNAP-7941 binding (murine brown adipocytes [1]; versus baseline): 22.9 ± 5.0% |
|  |  |  | CC(C)(C)NCC(O)COc1cccc2[nH]c(=O)[nH]c12 (stereo not drawn) [[^3H]CGP-12177, 5,7-[^3H](-)CGP-12177] |  |  |  |  | Kd (ADRB3 [4]): 109 nM |
|  |  |  | CC(C)NCC(O)COc1cccc2[nH]c3ccccc3c12 (centres unmarked) [carazolol, reference compound] |  |  |  |  | Ki ([3]; three independent experiments in triplicates): 2 ± 0.3 nM; Ki (ADRB3 [5]): 2 nM |
